The values that follow are results of earlier work, collected in patent US20190269715A1, “COMPOSITIONS AND METHOD OF USE OF A-TYPE PROCYANIDINS” (MARS, INCORPORATED, priority 2004, published 2019).

In data set [1] the target is Leukemia virus reverse transcriptase (Moloney murine leukemia virus, UniProt P03355). As to conditions: cited from earlier work.
For data set [2] the following is noted: experimental animal studies; cited from earlier work.
A further data set deals with tumor. As to conditions: cited from earlier work.

Turning to `Oc1cc(O)c2c(c1)O[C@H](c1ccc(O)c(O)c1)[C@H](O)C2` [(−)-epicatechin], in data set [1], the “inhibition of Leukemia virus reverse transcriptase activity” value is recorded as “inhibit”.

As for `O=c1c(O)c(-c2ccc(O)c(O)c2)oc2cc(O)cc(O)c12` [quercetin], in data set [2], the anticarcinogenic activity entry is recorded as “anticarcinogenic activity”.

Consider Nobotanin, for which, in the data set on tumor, the anti-tumor activity entry is on record as “anti-tumor activity”.
